From patent publication US12559506B2, “Indazole based compounds and associated methods of use” (Arvinas Operations, Inc., priority 2021, dated 2026)

Molecular target: T1, LRRK2 (endogenous, HiBit tagged) (Homo sapiens, UniProt Q5S007)
T1 construct: endogenous in cells; host or cells: HEK293 cells with HiBit knock-in at the endogenous LRRK2 locus, stably expressing firefly luciferase
Test: Endogenous LRRK2 degradation assay, endogenous gene C-terminally HiBit-tagged in HEK293 cells (Nano-Glo Dual Luciferase)
Format: cell-based
Conditions: endogenous HiBit-tagged LRRK2 in HEK293 cells, 24 hours treatment; for Dmax: read-out: **Endogenous WT Dmax (%); for DC50: read-out: *Endogenous WT DC50
How it was run: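 LRRK2-HiBit quantified via Nano-Glo Dual Luciferase in HEK293 knock-in cells co-expressing firefly luciferase, after 24 h exposure to compound (1 μM final top, 1:3, 11 points). Values normalised to DMSO median per plate and curve-fitted; Alamar Blue viability run alongside.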

T1 sequence (Q5S007 whole entry): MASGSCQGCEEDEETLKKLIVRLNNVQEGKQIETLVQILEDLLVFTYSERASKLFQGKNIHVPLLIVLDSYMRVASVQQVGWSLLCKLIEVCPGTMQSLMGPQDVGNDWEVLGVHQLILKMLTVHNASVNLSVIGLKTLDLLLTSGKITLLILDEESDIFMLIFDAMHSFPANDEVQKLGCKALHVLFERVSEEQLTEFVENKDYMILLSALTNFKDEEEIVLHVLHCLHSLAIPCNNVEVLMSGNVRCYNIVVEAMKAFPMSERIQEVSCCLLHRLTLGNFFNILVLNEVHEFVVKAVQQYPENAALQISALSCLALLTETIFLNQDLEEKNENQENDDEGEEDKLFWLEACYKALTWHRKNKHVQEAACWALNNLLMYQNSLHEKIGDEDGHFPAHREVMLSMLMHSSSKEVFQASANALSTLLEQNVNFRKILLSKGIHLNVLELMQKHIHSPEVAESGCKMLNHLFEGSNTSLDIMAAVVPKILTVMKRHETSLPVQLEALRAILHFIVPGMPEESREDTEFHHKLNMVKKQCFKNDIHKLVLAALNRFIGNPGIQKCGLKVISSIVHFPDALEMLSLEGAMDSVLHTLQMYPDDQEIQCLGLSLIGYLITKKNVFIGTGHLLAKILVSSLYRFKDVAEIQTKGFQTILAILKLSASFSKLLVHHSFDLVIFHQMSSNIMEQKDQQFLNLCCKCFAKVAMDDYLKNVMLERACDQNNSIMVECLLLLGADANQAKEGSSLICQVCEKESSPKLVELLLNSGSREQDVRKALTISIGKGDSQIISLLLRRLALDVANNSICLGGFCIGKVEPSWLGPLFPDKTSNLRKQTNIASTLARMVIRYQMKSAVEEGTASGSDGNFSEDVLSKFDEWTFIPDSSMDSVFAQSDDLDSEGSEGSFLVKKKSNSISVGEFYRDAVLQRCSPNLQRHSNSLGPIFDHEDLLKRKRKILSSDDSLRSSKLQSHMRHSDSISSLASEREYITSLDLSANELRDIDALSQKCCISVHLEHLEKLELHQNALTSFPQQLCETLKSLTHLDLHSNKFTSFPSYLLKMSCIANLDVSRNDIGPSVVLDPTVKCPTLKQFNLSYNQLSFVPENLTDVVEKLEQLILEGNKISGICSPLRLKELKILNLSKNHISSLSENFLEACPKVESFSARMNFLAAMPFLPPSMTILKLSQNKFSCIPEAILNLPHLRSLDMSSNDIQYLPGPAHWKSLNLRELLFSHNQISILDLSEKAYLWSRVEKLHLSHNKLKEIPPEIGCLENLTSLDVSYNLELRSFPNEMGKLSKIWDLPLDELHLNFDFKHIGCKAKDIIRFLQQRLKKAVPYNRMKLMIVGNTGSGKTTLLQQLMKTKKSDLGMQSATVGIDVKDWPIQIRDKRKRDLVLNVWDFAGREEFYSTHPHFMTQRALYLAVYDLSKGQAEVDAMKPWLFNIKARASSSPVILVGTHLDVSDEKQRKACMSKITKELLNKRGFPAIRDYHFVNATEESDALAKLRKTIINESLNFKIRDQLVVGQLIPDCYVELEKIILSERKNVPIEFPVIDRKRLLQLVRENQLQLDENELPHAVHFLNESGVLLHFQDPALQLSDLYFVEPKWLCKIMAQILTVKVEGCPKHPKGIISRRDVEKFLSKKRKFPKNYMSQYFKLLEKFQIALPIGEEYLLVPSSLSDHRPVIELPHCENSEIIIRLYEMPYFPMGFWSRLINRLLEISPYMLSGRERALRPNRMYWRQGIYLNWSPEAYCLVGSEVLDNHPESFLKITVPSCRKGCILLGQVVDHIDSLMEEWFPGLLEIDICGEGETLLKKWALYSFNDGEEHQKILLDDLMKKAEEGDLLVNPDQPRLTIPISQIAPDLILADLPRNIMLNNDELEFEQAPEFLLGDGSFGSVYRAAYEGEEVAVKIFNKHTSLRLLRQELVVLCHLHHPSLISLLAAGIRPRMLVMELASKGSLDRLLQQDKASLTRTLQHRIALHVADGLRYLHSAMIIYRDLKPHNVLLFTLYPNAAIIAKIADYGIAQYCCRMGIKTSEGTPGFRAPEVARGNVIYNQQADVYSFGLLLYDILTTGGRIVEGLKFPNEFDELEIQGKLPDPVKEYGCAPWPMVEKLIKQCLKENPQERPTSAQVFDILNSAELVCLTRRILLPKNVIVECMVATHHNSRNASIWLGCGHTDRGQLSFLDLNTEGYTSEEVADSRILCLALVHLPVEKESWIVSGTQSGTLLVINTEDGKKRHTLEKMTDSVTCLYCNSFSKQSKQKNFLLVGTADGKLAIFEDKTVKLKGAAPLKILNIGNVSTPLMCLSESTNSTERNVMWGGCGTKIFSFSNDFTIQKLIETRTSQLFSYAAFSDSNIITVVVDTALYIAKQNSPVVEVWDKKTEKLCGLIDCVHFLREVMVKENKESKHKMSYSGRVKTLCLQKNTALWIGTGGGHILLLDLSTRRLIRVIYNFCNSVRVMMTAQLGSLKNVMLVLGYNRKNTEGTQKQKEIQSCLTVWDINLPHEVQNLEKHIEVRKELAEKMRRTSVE

Row | SMILES | Dmax [%] | DC50 [nM]
1 | CC1(Oc2ccc3n[nH]c(-c4cc(N5CCC(O[C@H]6C[C@H](N7CC[C@@H](c8ccc9c(c8F)CN(C8CCC(=O)NC8=O)C9=O)[C@@H](F)C7)C6)CC5)ncn4)c3c2)CC1 (stereo partly shown) [Compound 297, 3-{4-fluoro-5-[(3r,4s)-3-fluoro-1-[(1r,3r)-3-[(1-{6-[5-(1-methylcyclopropoxy)-2H-indazol-3-yl]pyrimidin-4-yl}piperidin-4-yl)oxy]cyclobutyl]piperidin-4-yl]-1-oxo-2,3-dihydro-1H-isoindol-2-yl}piperidine-2,6-dione] | 50 to 70 | < 10
2 | COc1c(N2CCC(CN3CCC(OC4CN(c5cc(-c6[nH]nc7ccc(OC8(C)CC8)cc67)ncn5)C4)CC3)CC2)ccc2c1CN(C1CCC(=O)NC1=O)C2=O (stereo not shown) [Compound 298, 3-{4-methoxy-5-[4-({4-[(1-{6-[5-(1-methylcyclopropoxy)-2H-indazol-3-yl]pyrimidin-4-yl}azetidin-3-yl)oxy]piperidin-1-yl}methyl)piperidin-1-yl]-1-oxo-2,3-dihydro-1H-isoindol-2-yl}piperidine-2,6-dione] | 50 to 70 | < 10
3 | CC1(Oc2cc3c(-c4cc(N5CCN(C[C@@H]6CCN(CC7CCN(c8ccc9c(c8F)CN(C8CCC(=O)NC8=O)C9=O)CC7)C[C@@H]6F)CC5)ncn4)n[nH]c3cc2F)CC1 (stereo partly shown) [Compound 299, 3-[4-fluoro-5-(4-{[(3r,4s)-3-fluoro-4-[(4-{6-[6-fluoro-5-(1-methylcyclopropoxy)-1H-indazol-3-yl]pyrimidin-4-yl}piperazin-1-yl)methyl]piperidin-1-yl]methyl}piperidin-1-yl)-1-oxo-2,3-dihydro-1H-isoindol-2-yl]piperidine-2,6-dione] | 50 to 70 | < 10
4 | CC1(Oc2ccc3n[nH]c(-c4cc(N5CCN(C[C@H]6C[C@H](OC7CCN(c8ccc9c(c8F)CN(C8CCC(=O)NC8=O)C9=O)CC7)C6)CC5)ncn4)c3c2)CC1 (stereo partly shown) [Compound 300, 3-(4-fluoro-1-oxo-5-{4-[(1r,3r)-3-[(4-{6-[5-(1-methylcyclopropoxy)-2H-indazol-3-yl]pyrimidin-4-yl}piperazin-1-yl)methyl]cyclobutoxy]piperidin-1-yl}-2,3-dihydro-1H-isoindol-2-yl)piperidine-2,6-dione] | 50 to 70 | < 10
5 | CC1(Oc2ccc3n[nH]c(-c4cc(N5CCC(CN6CC(F)(CN7CCN(c8ccc9c(c8F)CN(C8CCC(=O)NC8=O)C9=O)CC7)C6)CC5)ncn4)c3c2)CC1 (stereo not shown) [Compound 301, 3-{4-fluoro-5-[4-({3-fluoro-1-[(1-{6-[5-(1-methylcyclopropoxy)-2H-indazol-3-yl]pyrimidin-4-yl}piperidin-4-yl)methyl]azetidin-3-yl}methyl)piperazin-1-yl]-1-oxo-2,3-dihydro-1H-isoindol-2-yl}piperidine-2,6-dione] | ≥ 70 | < 10
6 | COc1c(N2CCN(C[C@H]3CO[C@H](CN4CCN(c5cc(-c6n[nH]c7cnc(OC8(C)CC8)cc67)ncn5)CC4)CO3)CC2)ccc2c1CN(C1CCC(=O)NC1=O)C2=O (stereo partly shown) [Compound 302, 3-[4-methoxy-5-(4-{[(2s,5r)-5-[(4-{6-[5-(1-methylcyclopropoxy)-1H-pyrazolo[3,4-c]pyridin-3-yl]pyrimidin-4-yl}piperazin-1-yl)methyl]-1,4-dioxan-2-yl]methyl}piperazin-1-yl)-1-oxo-2,3-dihydro-1H-isoindol-2-yl]piperidine-2,6-dione] | 50 to 70 | < 10
7 | COc1c(N2CCC(CN3CCN(C[C@H]4CCN(c5cc(-c6n[nH]c7ccc(OC8(C)CC8)cc67)ncn5)C4)CC3)CC2)ccc2c1CN(C1CCC(=O)NC1=O)C2=O (stereo partly drawn) [Compound 303, 3-(4-methoxy-5-{4-[(4-{[(3R)-1-{6-[5-(1-methylcyclopropoxy)-1H-indazol-3-yl]pyrimidin-4-yl}pyrrolidin-3-yl]methyl}piperazin-1-yl)methyl]piperidin-1-yl}-1-oxo-2,3-dihydro-1H-isoindol-2-yl)piperidine-2,6-dione] | 50 to 70 | < 10
8 | CC1(Oc2ccc3n[nH]c(-c4cc(N5CC6(CCN([C@H]7C[C@H](OC8CCN(c9ccc%10c(c9F)CN(C9CCC(=O)NC9=O)C%10=O)CC8)C7)CC6)C5)ncn4)c3c2)CC1 (stereo partly shown) [Compound 304, 3-(4-fluoro-1-oxo-5-{4-[(1r,3r)-3-(2-{6-[5-(1-methylcyclopropoxy)-2H-indazol-3-yl]pyrimidin-4-yl}-2,7-diazaspiro[3.5]nonan-7-yl)cyclobutoxy]piperidin-1-yl}-2,3-dihydro-1H-isoindol-2-yl)piperidine-2,6-dione] | 50 to 70 | < 10
9 | CC1(Oc2ccc3n[nH]c(-c4cc(N5CCN(CC6(F)CN(CC7CCN(c8ccc9c(c8F)CN(C8CCC(=O)NC8=O)C9=O)CC7)C6)CC5)ncn4)c3c2)CC1 (stereo not shown) [Compound 306, 3-{4-fluoro-5-[4-({3-fluoro-3-[(4-{6-[5-(1-methylcyclopropoxy)-2H-indazol-3-yl]pyrimidin-4-yl}piperazin-1-yl)methyl]azetidin-1-yl}methyl)piperidin-1-yl]-1-oxo-2,3-dihydro-1H-isoindol-2-yl}piperidine-2,6-dione] | 50 to 70 | < 10
10 | C[C@@H]1CN(CC2CCN(c3cc(-c4n[nH]c5ccc(OC6(C)CC6)cc45)ncn3)CC2)C[C@H](C)N1CC1CCN(c2ccc3c(c2F)CN(C2CCC(=O)NC2=O)C3=O)CC1 (stereo partly drawn) [Compound 307, 3-[5-(4-{[(2R,6S)-2,6-dimethyl-4-[(1-{6-[5-(1-methylcyclopropoxy)-1H-indazol-3-yl]pyrimidin-4-yl}piperidin-4-yl)methyl]piperazin-1-yl]methyl}piperidin-1-yl)-4-fluoro-1-oxo-2,3-dihydro-1H-isoindol-2-yl]piperidine-2,6-dione] | 50 to 70 | < 10
11 | CC1(Oc2ccc3[nH]nc(-c4cc(N5CCC(O[C@H]6CCN(CC7CCN(c8ccc9c(c8F)CN(C8CCC(=O)NC8=O)C9=O)CC7)C(C)(C)C6)CC5)ncn4)c3c2)CC1 (stereo partly drawn) [Compound 308, 3-(5-(4-(((S)-2,2-dimethyl-4-((1-(6-(5-(1-methylcyclopropoxy)-1H-indazol-3-yl)pyrimidin-4-yl)piperidin-4-yl)oxy)piperidin-1-yl)methyl)piperidin-1-yl)-4-fluoro-1-oxoisoindolin-2-yl)piperidine-2,6-dione] | 50 to 70 | < 10
12 | CC1(Oc2ccc3[nH]nc(-c4cc(N5CCC(CN6CCN(C(C)(C)C7CCN(c8ccc9c(c8F)CN(C8CCC(=O)NC8=O)C9=O)CC7)CC6)CC5)ncn4)c3c2)CC1 (stereo not shown) [Compound 309, 3-{4-fluoro-5-[4-(2-{4-[(1-{6-[5-(1-methylcyclopropoxy)-1H-indazol-3-yl]pyrimidin-4-yl}piperidin-4-yl)methyl]piperazin-1-yl}propan-2-yl)piperidin-1-yl]-1-oxo-2,3-dihydro-1H-isoindol-2-yl}piperidine-2,6-dione] | ≥ 70 | < 10
13 | CC1(Oc2ccc3[nH]nc(-c4cc(N5CCC(CN6CC[C@@H](OC7CCN(c8ccc9c(c8F)CN(C8CCC(=O)NC8=O)C9=O)CC7)CC6(C)C)CC5)ncn4)c3c2)CC1 (stereo partly drawn) [Compound 310, 3-[5-(4-{[(4R)-2,2-dimethyl-1-[(1-{6-[5-(1-methylcyclopropoxy)-1H-indazol-3-yl]pyrimidin-4-yl}piperidin-4-yl)methyl]piperidin-4-yl]oxy}piperidin-1-yl)-4-fluoro-1-oxo-2,3-dihydro-1H-isoindol-2-yl]piperidine-2,6-dione] | 50 to 70 | < 10
14 | COc1c(N2CCC(CN3CCN(C[C@@H]4CCN(c5cc(-c6n[nH]c7ccc(OC8(C)CC8)cc67)ncn5)C4)CC3)CC2)ccc2c1CN(C1CCC(=O)NC1=O)C2=O (stereo partly drawn) [Compound 311, 3-(4-methoxy-5-{4-[(4-{[(3S)-1-{6-[5-(1-methylcyclopropoxy)-1H-indazol-3-yl]pyrimidin-4-yl}pyrrolidin-3-yl]methyl}piperazin-1-yl)methyl]piperidin-1-yl}-1-oxo-2,3-dihydro-1H-isoindol-2-yl)piperidine-2,6-dione] | 50 to 70 | < 10
15 | CC1(Oc2ccc3[nH]nc(-c4cc(N5CCC(CN6CC[C@H](OC7CCN(c8ccc9c(c8F)CN(C8CCC(=O)NC8=O)C9=O)CC7)CC6(C)C)CC5)ncn4)c3c2)CC1 (stereo partly drawn) [Compound 313, 3-[5-(4-{[(4S)-2,2-dimethyl-1-[(1-{6-[5-(1-methylcyclopropoxy)-1H-indazol-3-yl]pyrimidin-4-yl}piperidin-4-yl)methyl]piperidin-4-yl]oxy}piperidin-1-yl)-4-fluoro-1-oxo-2,3-dihydro-1H-isoindol-2-yl]piperidine-2,6-dione] | 50 to 70 | < 10
16 | COc1c(N2CCN(C[C@H]3C[C@H](OC4CCN(c5cc(-c6[nH]nc7ccc(OC8(C)CC8)cc67)ncn5)CC4)C3)CC2)ccc2c1CN(C1CCC(=O)NC1=O)C2=O (stereo partly shown) [Compound 314, 3-[4-methoxy-1-oxo-5-(4-{[(1r,3r)-3-[(1-{6-[5-(1-methylcyclopropoxy)-2H-indazol-3-yl]pyrimidin-4-yl}piperidin-4-yl)oxy]cyclobutyl]methyl}piperazin-1-yl)-2,3-dihydro-1H-isoindol-2-yl]piperidine-2,6-dione] | 50 to 70 | < 10
17 | COc1c(N2CCC3(CC2)CN([C@H]2C[C@H](OC4CCN(c5cc(-c6[nH]nc7ccc(OC8(C)CC8)cc67)ncn5)CC4)C2)C3)ccc2c1CN(C1CCC(=O)NC1=O)C2=O (stereo partly shown) [Compound 315, 3-(4-methoxy-1-oxo-5-{2-[(1r,3r)-3-[(1-{6-[5-(1-methylcyclopropoxy)-2H-indazol-3-yl]pyrimidin-4-yl}piperidin-4-yl)oxy]cyclobutyl]-2,7-diazaspiro[3.5]nonan-7-yl}-2,3-dihydro-1H-isoindol-2-yl)piperidine-2,6-dione] | 50 to 70 | < 10
